Test results published in patent US7705029B2 (Synta Pharmaceuticals Corp., priority 2004, dated 2010).
Like-named read-outs stand apart in the source and are kept apart here. Blank lines part the entries; values can stand above or below the compound they belong to.

Test system: IL-2 production in a Human Jurkat Cell Line
Experiment: Inhibition of IL-2 production in PHA-stimulated Jurkat cells (IL-2 ELISA)
Assay type: cell-based
Conditions: read-out: IC50 (concentration at which IL-2 release is inhibited by 50%)
Procedure: Jurkat cells (ATCC, Cat# TIB-152) were grown in RPMI1640 medium (ATCC, Cat# 30-2001) containing 10% of FBS (ATCC, Cat# 30-2020). For compound screening, Jurkat cells were plated in 96-well plates at a density of 0.5 million cells per well in RPMI1640 medium containing 1% of FBS. Then, various concentrations of each test compound were added to the cell plates followed by addition of PHA (Sigma, Cat# L-9017) at a final concentration of 2.5 μg/ml to stimulate IL-2 production. Cells were then incubated at 37° C. (+5% CO2) for 20 hours before ELISA assay. After 20 hours incubation, cell plates were centrifuged at 500-800 g for 5 minutes and the supernatants was collected for IL-2 detection using the human IL-2 ELISA kit purchased from Cell Sciences (Cat# 851.500.020). The ELISA assay for IL-2 production was done in 96-well plates using a protocol provided by Cell Sciences.
The IC50 (i.e., the concentration at which IL-2 release is inhibited by 50%) was determined and the results are shown in the Table. […] The designation “A” means an IC50 less than 0.010 μM; the designation B means an IC50 between 0.010 and 1.0 μM; and the designation “C” mean an IC50 greater than 1 μM.

Structure (SMILES): Cc1cc(C(F)(F)F)n(-c2ccc(C=C(C#N)c3ccc(F)cc3F)cc2)n1 [Compound 19, 2-(2,4-Difluoro-phenyl)-3-[4-(3-methyl-5-trifluoromethyl-pyrazol-1-yl)-phenyl]-acrylonitrile]
IC50 (Homo sapiens, Jurkat, 20 h): 10 to 1000 nM

Structure (SMILES): N#CC(=Cc1ccc(-n2ccc(C(F)(F)F)n2)cc1)c1ccc(F)cc1F [Compound 16, 2-(2,4-Difluoro-phenyl)-3-[4-(3-trifluoromethyl-pyrazol-1-yl)-phenyl]-acrylonitrile]
IC50 (Homo sapiens, Jurkat, 20 h): > 1000 nM

Structure (SMILES): Cc1ccn(-c2ccc(C=C(C#N)C(=O)c3ccco3)cc2)n1 [Compound 29, 2-(Furan-2-carbonyl)-3-[4-(3-methyl-pyrazol-1-yl)-phenyl]-acrylonitrile]
IC50 (Homo sapiens, Jurkat, 20 h): > 1000 nM

Structure (SMILES): N#C/C(=C\c1ccc(-n2nc(C(F)(F)F)cc2C(F)(F)F)cc1)C(=O)c1cccc(F)c1F [Compound 25, 3-[4-(3,5-Bis-trifluoromethyI-pyrazol-1-yl)-phenyl]-2-(2,3-difluoro-benzoyl)-acrylonitrile]
IC50 (Homo sapiens, Jurkat, 20 h): > 1000 nM

Structure (SMILES): N#CC(=Cc1ccc(-n2cccn2)cc1)C(=O)c1ccccc1 [Compound 30, 2-Benzoyl-3-(4-pyrazol-1-yl-phenyl)-acrylonitrile]
IC50 (Homo sapiens, Jurkat, 20 h): > 1000 nM

Structure (SMILES): N#CC(=Cc1ccc(-n2ccc(C(F)(F)F)n2)cc1)C(=O)c1ccc(F)cc1F [Compound 37, 2-(2,4-Difluoro-benzoyl)-3-[4-(3-trifluoromethyl-pyrazol-1-yl)-phenyl]-acrylonitrile]
IC50 (Homo sapiens, Jurkat, 20 h): > 1000 nM

Structure (SMILES): N#CC(=Cc1ccc(-n2ccc(-c3ccccc3)n2)cc1)C(=O)c1cccc(F)c1F [Compound 35, 2-(2,3-Difluoro-benzoyl)-3-[4-(3-phenyl-pyrazol-1-yl)-phenyl]-acrylonitrile]
IC50 (Homo sapiens, Jurkat, 20 h): > 1000 nM

Structure (SMILES): N#C/C(=C\c1ccc(-n2nc(C(F)(F)F)cc2C(F)(F)F)cc1)c1cccc(F)c1F [Compound 4, 3-[4-(3,5-Bis-trifluoromethyl-pyrazol-1-yl)-phenyl]-2-(2,3-difluoro-phenyl)-acrylonitrile]
IC50 (Homo sapiens, Jurkat, 20 h): < 10 nM

Structure (SMILES): Cc1cc(C(F)(F)F)n(-c2ccc(C=C(C#N)c3c(F)cccc3F)cc2)n1 [Compound 20, 2-(2,6-Difluoro-phenyl)-3-[4-(3-methyl-5-trifluoromethyl-pyrazol-1-yl)-phenyl]-acrylonitrile]
IC50 (Homo sapiens, Jurkat, 20 h): 10 to 1000 nM

Structure (SMILES): N#CC(=Cc1ccc(-n2nc(C(F)(F)F)cc2C(F)(F)F)cc1)C(=O)c1ccco1 [Compound 33, 3-[4-(3,5-Bis-trifluoromethyl-pyrazol-1-yl)-phenyl]-2-(furan-2-carbonyl)-acrylonitrile]
IC50 (Homo sapiens, Jurkat, 20 h): > 1000 nM

Structure (SMILES): N#CC(=Cc1cccc(-n2nc(C(F)(F)F)cc2C(F)(F)F)c1)c1cccc(F)c1F [Compound 43, 3-[3-(3,5-Bis-trifluoromethyl-pyrazol-1-yl)-phenyl]-2-(2,3-difluoro-phenyl)-acrylonitrile]
IC50 (Homo sapiens, Jurkat, 20 h): > 1000 nM

Structure (SMILES): N#CC(=Cc1ccc(-n2nc(C(F)(F)F)cc2C(F)(F)F)cc1)c1ccc(F)c(F)c1F [Compound 8, 3-[4-(3,5-Bis-trifluoromethyl-pyrazol-1-yl)-phenyl]-2-(2,3,4-trifluoro-phenyl)-acrylonitrile]
IC50 (Homo sapiens, Jurkat, 20 h): 10 to 1000 nM

Structure (SMILES): N#CC(=Cc1ccc(-n2nc(C(F)(F)F)cc2C(F)(F)F)cc1)c1c(F)ccc(F)c1F [Compound 9, 3-[4-(3,5-Bis-trifluoromethyl-pyrazol-1-yl)-phenyl]-2-(2,3,6-trifluoro-phenyl)-acrylonitrile]
IC50 (Homo sapiens, Jurkat, 20 h): < 10 nM

Structure (SMILES): N#CC(=Cc1cccc(-n2nc(C(F)(F)F)cc2C(F)(F)F)c1)c1cc(F)ccc1F [Compound 44, 3-[3-(3,5-Bis-trifluoromethyl-pyrazol-1-yl)-phenyl]-2-(2,5-difluoro-phenyl)-acrylonitrile]
IC50 (Homo sapiens, Jurkat, 20 h): > 1000 nM

Structure (SMILES): N#CC(=Cc1ccc(-n2ccc(C(F)(F)F)n2)cc1)c1cc(F)ccc1F [Compound 42, 2-(2,5-Difluoro-phenyl)-3-[4-(3-trifluoromethyl-pyrazol-1-yl)-phenyl]-acrylonitrile]
IC50 (Homo sapiens, Jurkat, 20 h): > 1000 nM

Structure (SMILES): N#CC(=Cc1ccc(-n2cccn2)cc1)c1cc(F)ccc1F [Compound 24, 2-(2,5-Difluoro-phenyl)-3-(4-pyrazol-1-yl-phenyl)-acrylonitrile]
IC50 (Homo sapiens, Jurkat, 20 h): > 1000 nM

Structure (SMILES): N#C/C(=C\c1ccc(-n2nc(C(F)(F)F)cc2OC(F)F)cc1)c1cccc(F)c1F [Compound 1]
IC50 (Homo sapiens, Jurkat, 20 h): 10 to 1000 nM

Structure (SMILES): Cc1cc(C(F)(F)F)n(-c2ccc(C=C(C#N)c3cccc(F)c3F)cc2)n1 [Compound 18, 2-(2,3-Difluoro-phenyl)-3-[4-(3-methyl-5-trifluoromethyl-pyrazol-1-yl)-phenyl]-acrylonitrile]
IC50 (Homo sapiens, Jurkat, 20 h): 10 to 1000 nM

Structure (SMILES): Cc1cc(C(F)(F)F)n(-c2ccc(C=C(C#N)C(=O)c3cc(F)ccc3F)cc2)n1 [Compound 40, 2-(2,5-Difluoro-benzoyl)-3-[4-(3-methyl-5-trifluoromethyl-pyrazol-1-yl)-phenyl]-acrylonitrile]
IC50 (Homo sapiens, Jurkat, 20 h): > 1000 nM

Structure (SMILES): N#CC(=Cc1ccc(-n2nc(C(F)(F)F)cc2C(F)(F)F)cc1)C(=O)c1ccc(F)cc1F [Compound 34, 3-[4-(3,5-Bis-trifluoromethyl-pyrazol-1-yl)-phenyl]-2-(2,4-difluoro-benzoyl)-acrylonitrile]
IC50 (Homo sapiens, Jurkat, 20 h): > 1000 nM

Structure (SMILES): N#CC(=Cc1ccc(-n2nc(C(F)(F)F)cc2C(F)(F)F)cc1)c1cc(F)c(F)cc1F [Compound 12, 3-[4-(3,5-Bis-trifluoromethyl-pyrazol-1-yl)-phenyl]-2-(3,4,6-trifluoro-phenyl)-acrylonitrile]
IC50 (Homo sapiens, Jurkat, 20 h): 10 to 1000 nM

Structure (SMILES): Cc1cc(C(F)(F)F)n(-c2ccc(C=C(C#N)C(=O)c3ccc(F)cc3F)cc2)n1 [Compound 39, 2-(2,4-Difluoro-benzoyl)-3-[4-(3-methyl-5-trifluoromethyl-pyrazol-1-yl)-phenyl]-acrylonitrile]
IC50 (Homo sapiens, Jurkat, 20 h): > 1000 nM

Structure (SMILES): N#CC(=Cc1ccc(-n2ccc(C(F)(F)F)n2)cc1)C(=O)c1cc(F)ccc1F [Compound 41, 2-(2,5-Difluoro-benzoyl)-3-[4-(3-trifluoromethyl-pyrazol-1-yl)-phenyl]-acrylonitrile]
IC50 (Homo sapiens, Jurkat, 20 h): > 1000 nM

Structure (SMILES): N#CC(=Cc1ccc(-n2nc(C(F)(F)F)cc2C(F)(F)F)cc1)c1ccccc1F [Compound 6, 3-[4-(3,5-Bis-trifluoromethyl-pyrazol-1-yl)-phenyl]-2-(2-fluoro-phenyl)-acrylonitrile]
IC50 (Homo sapiens, Jurkat, 20 h): 10 to 1000 nM

Structure (SMILES): Cc1cc(C(F)(F)F)n(-c2ccc(C=C(C#N)c3ccc(F)c(F)c3)cc2)n1 [Compound 21, 2-(3,4-Difluoro-phenyl)-3-[4-(3-methyl-5-trifluoromethyl-pyrazol-1-yl)-phenyl]-acrylonitrile]
IC50 (Homo sapiens, Jurkat, 20 h): 10 to 1000 nM

Structure (SMILES): N#CC(=Cc1ccc(-n2nc(C(F)(F)F)cc2OC(F)F)cc1)c1cc(F)ccc1F [Compound 3, 3-[4-(5-Difluoromethoxy-3-trifluoromethyl-pyrazol-1-yl)-phenyl]-2-(2,5-difluoro-phenyl)-acrylonitrile]
IC50 (Homo sapiens, Jurkat, 20 h): 10 to 1000 nM

Structure (SMILES): N#CC(=Cc1ccc(-n2c(C(F)(F)F)nc3ccccc32)cc1)c1cc(F)ccc1F [Compound 46, 2-(2,5-Difluoro-phenyl)-3-[4-(2-trifluoromethyl-benzoimidazol-1-yl)-phenyl]-acrylonitrile]
IC50 (Homo sapiens, Jurkat, 20 h): 10 to 1000 nM

Structure (SMILES): Cc1cc(C(F)(F)F)n(-c2ccc(/C=C(\C#N)c3cc(F)ccc3F)cc2)n1 [Compound 15, 2-(2,5-Difluoro-phenyl)-3-[4-(3-methyl-5-trifluoromethyl-pyrazol-1-yl)-phenyl]-acrylonitrile]
IC50 (Homo sapiens, Jurkat, 20 h): 10 to 1000 nM

Structure (SMILES): N#CC(=Cc1ccc(-n2cccn2)cc1)c1ccccc1F [Compound 48, 2-(2-Fluoro-phenyl)-3-(4-pyrazol-1-yl-phenyl)-acrylonitrile]
IC50 (Homo sapiens, Jurkat, 20 h): > 1000 nM

IC50 (Jurkat cells, PHA 2.5 μg/ml, 20 hours incubation, human IL-2 ELISA of supernatant): > 1000 nM
Structure (SMILES): N#CC(=Cc1ccc(-n2nc(C(F)(F)F)cc2C(F)(F)F)cc1Cl)c1cccc(F)c1F [Compound 13, 3-[4-(3,5-Bis-trifluoromethyl-pyrazol-1-yl)-2-chloro-phenyl]-2-(2,3-difluoro-phenyl)-acrylonitrile]

Structure (SMILES): N#CC(=Cc1ccc(-n2nc(C(F)(F)F)cc2C(F)(F)F)cc1)c1cc(F)ccc1F [Compound 5, 3-[4-(3,5-Bis-trifluoromethyl-pyrazol-1-yl)-phenyl]-2-(2,5-difluoro-phenyl)-acrylonitrile]
IC50 (Homo sapiens, Jurkat, 20 h): < 10 nM

Structure (SMILES): N#CC(=Cc1ccc(-n2ccc(-c3cccs3)n2)cc1)C(=O)c1ccccc1 [Compound 28, 2-Benzoyl-3-[4-(3-thiophen-2-yl-pyrazol-1-yl)-phenyl]-acrylonitrile]
IC50 (Homo sapiens, Jurkat, 20 h): > 1000 nM

Structure (SMILES): N#CC(=Cc1ccc(-n2nc(C(F)(F)F)cc2C(F)(F)F)cc1)c1cc(F)c(F)c(F)c1 [Compound 10, 3-[4-(3,5-Bis-trifluoromethyl-pyrazol-1-yl)-phenyl]-2-(3,4,5-trifluoro-phenyl)-acrylonitrile]
IC50 (Homo sapiens, Jurkat, 20 h): 10 to 1000 nM

Structure (SMILES): N#CC(=Cc1ccc(-n2nc(C(F)(F)F)cc2OC(F)F)cc1)c1ccccc1F [Compound 2, 3-[4-(5-Difluoromethoxy-3-trifluoromethyl-pyrazol-1-yl)-phenyl]-2-(2-fluoro-phenyl)-acrylonitrile]
IC50 (Homo sapiens, Jurkat, 20 h): 10 to 1000 nM

Structure (SMILES): N#CC(=Cc1ccc(-n2cccn2)cc1)c1ccccc1 [Compound 23, 2-Phenyl-3-(4-pyrazol-1-yl-phenyl)-acrylonitrile]
IC50 (Homo sapiens, Jurkat, 20 h): > 1000 nM

Structure (SMILES): N#CC(=Cc1ccc(-n2c(C(F)(F)F)nc3ccccc32)cc1)c1cccc(F)c1F [Compound 45, 2-(2,3-Difluoro-phenyl)-3-[4-(2-trifluoromethyl-benzoimidazol-1-yl)-phenyl]-acrylonitrile]
IC50 (Homo sapiens, Jurkat, 20 h): 10 to 1000 nM
